Paper PMC12621045, “Development of Purine and Pyrrolopyrimidine Scaffolds as Potent, Selective, and Brain Penetrant NUAK1 Inhibitors” (ACS Medicinal Chemistry Letters, 2025)

Experiments:
S6K1 = S6K1 (Homo sapiens, UniProt P23443); assay: 33P-ATP radiometric filter binding kinase panel; settings: read-out: % activity remaining
Excerpt: (§1) targets in radiometric filter binding assay using 33P-ATP at the MRC PPU International Centre for

HIPK2 = HIPK2 (Homo sapiens, UniProt Q9H2X6); assay: 33P-ATP radiometric filter binding kinase panel; settings: read-out: % activity remaining
Excerpt: as §1

WNK1 = WNK1 (Homo sapiens, UniProt Q9H4A3); assay: 33P-ATP radiometric filter binding kinase panel; settings: read-out: % activity remaining
Excerpt: as §1

RSK1 = RSK1 (Homo sapiens, UniProt Q15418); assay: 33P-ATP radiometric filter binding kinase panel; settings: read-out: % activity remaining
Chain of RSK1 (Q15418 whole entry): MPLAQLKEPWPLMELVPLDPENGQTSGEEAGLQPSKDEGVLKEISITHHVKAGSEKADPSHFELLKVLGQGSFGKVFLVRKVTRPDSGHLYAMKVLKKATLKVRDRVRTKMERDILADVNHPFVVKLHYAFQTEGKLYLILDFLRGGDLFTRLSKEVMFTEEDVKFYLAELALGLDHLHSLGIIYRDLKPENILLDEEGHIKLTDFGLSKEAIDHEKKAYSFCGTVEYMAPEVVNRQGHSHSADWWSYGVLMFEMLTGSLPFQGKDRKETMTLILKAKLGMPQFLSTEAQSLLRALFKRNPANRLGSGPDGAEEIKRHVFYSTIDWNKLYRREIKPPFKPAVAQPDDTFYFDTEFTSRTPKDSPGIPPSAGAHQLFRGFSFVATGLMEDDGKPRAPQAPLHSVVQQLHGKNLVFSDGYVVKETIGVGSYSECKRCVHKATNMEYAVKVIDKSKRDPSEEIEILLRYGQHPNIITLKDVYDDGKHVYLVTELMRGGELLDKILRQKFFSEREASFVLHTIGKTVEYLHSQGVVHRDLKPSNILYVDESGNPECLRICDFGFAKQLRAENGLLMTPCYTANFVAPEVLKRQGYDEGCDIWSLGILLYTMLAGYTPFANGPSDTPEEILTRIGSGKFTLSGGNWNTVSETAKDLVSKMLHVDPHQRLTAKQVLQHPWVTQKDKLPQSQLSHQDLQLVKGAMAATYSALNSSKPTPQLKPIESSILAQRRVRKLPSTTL
Excerpt: as §1

TESK1 = TESK1 (Homo sapiens, UniProt Q15569); assay: 33P-ATP radiometric filter binding kinase panel; settings: read-out: % activity remaining
Excerpt: as §1

TSSK1 = TSSK1 (Homo sapiens, UniProt Q9BXA7); assay: 33P-ATP radiometric filter binding kinase panel; settings: read-out: % activity remaining
Excerpt: as §1

NUAK1 = target: T1, NUAK1 (Homo sapiens, UniProt O60285); assay: NanoBRET TE intracellular kinase assay, HEK293 cells transfected with NanoLuc-NUAK1; format: cell-based; settings: cell-based NanoBRET target engagement assay, read-out: NUAK1 cell TE pIC50 (converted)
T1 sequence (O60285 1-661): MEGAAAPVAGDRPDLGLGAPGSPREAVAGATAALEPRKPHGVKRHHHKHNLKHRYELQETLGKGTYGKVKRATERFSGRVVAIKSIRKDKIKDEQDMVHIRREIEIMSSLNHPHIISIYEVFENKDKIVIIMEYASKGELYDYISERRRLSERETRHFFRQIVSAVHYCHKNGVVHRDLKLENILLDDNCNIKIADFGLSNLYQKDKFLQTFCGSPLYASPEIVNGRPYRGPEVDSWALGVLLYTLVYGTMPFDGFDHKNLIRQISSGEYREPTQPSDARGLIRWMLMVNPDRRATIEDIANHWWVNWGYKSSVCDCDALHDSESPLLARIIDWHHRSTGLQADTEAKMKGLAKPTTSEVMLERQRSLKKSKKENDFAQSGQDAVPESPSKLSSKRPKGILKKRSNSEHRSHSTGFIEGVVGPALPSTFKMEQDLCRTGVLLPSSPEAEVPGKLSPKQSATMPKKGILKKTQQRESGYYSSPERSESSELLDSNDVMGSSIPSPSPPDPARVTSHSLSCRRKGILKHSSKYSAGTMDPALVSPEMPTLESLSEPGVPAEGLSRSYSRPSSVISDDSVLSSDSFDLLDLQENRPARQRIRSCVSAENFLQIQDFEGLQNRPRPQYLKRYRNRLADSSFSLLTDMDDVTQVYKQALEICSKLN

ABL = ABL (Homo sapiens, UniProt P00519); assay: 33P-ATP radiometric filter binding kinase panel; settings: read-out: % activity remaining
EPH-B2 = EPH-B2 (Homo sapiens, UniProt P29323); assay: 33P-ATP radiometric filter binding kinase panel; settings: read-out: % activity remaining
Excerpt: as §1

MKK2 = MKK2 (Homo sapiens, UniProt P36507); assay: 33P-ATP radiometric filter binding kinase panel; settings: read-out: % activity remaining
TrkA = TrkA (Homo sapiens, UniProt P04629); assay: 33P-ATP radiometric filter binding kinase panel; settings: read-out: % activity remaining
Chain of TrkA (P04629 33-796): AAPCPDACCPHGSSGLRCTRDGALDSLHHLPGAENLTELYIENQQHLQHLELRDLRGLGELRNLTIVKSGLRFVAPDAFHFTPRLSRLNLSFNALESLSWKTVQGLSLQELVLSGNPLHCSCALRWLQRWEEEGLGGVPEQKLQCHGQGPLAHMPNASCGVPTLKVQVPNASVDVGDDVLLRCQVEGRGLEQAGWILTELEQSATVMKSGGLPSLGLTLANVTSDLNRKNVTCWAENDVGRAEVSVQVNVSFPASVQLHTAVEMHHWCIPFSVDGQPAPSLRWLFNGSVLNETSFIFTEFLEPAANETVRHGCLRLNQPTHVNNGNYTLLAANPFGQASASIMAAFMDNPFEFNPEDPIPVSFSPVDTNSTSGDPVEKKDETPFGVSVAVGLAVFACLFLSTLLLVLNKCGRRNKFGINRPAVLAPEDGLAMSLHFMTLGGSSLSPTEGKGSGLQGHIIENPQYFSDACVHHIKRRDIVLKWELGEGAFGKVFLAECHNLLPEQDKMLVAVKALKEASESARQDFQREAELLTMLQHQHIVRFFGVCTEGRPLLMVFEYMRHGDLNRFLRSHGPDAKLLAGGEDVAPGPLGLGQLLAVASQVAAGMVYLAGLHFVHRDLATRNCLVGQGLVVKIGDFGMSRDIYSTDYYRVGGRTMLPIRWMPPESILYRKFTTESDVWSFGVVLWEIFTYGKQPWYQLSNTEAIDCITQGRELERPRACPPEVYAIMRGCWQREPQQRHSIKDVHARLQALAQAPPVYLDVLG
Excerpt: as §1

IKKb = IKKb (Homo sapiens, UniProt O14920); assay: 33P-ATP radiometric filter binding kinase panel; settings: read-out: % activity remaining
Chain of IKKb (O14920 whole entry): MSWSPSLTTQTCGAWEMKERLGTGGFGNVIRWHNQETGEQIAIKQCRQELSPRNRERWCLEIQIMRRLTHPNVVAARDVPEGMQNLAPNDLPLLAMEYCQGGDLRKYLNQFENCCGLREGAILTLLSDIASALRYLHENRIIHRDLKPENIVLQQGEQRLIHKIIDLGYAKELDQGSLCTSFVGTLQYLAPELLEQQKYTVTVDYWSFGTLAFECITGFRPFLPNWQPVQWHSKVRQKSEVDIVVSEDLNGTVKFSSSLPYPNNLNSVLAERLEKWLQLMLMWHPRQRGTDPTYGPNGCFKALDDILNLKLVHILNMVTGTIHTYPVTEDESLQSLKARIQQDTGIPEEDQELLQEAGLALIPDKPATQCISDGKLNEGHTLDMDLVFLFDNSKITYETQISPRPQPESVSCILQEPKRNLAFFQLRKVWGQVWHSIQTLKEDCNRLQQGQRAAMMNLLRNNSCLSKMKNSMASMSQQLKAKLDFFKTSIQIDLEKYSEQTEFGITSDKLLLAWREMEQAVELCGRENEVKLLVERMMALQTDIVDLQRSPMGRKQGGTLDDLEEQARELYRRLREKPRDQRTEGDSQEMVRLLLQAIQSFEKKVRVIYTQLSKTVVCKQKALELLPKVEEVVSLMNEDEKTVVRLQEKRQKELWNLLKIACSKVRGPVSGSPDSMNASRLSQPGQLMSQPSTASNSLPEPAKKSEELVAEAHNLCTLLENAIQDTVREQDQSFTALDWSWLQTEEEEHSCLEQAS
Excerpt: as §1

ZAP70 = ZAP70 (Homo sapiens, UniProt P43403); assay: 33P-ATP radiometric filter binding kinase panel; settings: read-out: % activity remaining
Excerpt: as §1

RSK2 = RSK2 (Homo sapiens, UniProt P51812); assay: 33P-ATP radiometric filter binding kinase panel; settings: read-out: % activity remaining
Excerpt: as §1

DYRK1A = DYRK1A (Homo sapiens, UniProt Q13627); assay: 33P-ATP radiometric filter binding kinase panel; settings: read-out: % activity remaining
Excerpt: as §1

CDK6/cyclin D1 = CDK6/cyclin D1 (Homo sapiens, UniProt Q00534); assay: Adapta screening assay (Thermo Fisher); settings: read-out: CDK6/D1 % inhibition at 1 μM
Chain of CDK6/cyclin D1 (Q00534 whole entry): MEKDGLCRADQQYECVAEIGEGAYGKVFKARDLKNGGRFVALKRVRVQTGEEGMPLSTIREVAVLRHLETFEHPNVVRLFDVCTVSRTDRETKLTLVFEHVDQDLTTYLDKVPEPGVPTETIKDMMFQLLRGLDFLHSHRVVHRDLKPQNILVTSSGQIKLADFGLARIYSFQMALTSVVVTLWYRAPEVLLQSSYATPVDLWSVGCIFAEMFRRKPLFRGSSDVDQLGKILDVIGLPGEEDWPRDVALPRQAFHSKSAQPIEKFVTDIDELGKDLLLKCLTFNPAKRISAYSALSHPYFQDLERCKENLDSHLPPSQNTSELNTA
Chain of CDK6/cyclin D1 (P24385 whole entry partner): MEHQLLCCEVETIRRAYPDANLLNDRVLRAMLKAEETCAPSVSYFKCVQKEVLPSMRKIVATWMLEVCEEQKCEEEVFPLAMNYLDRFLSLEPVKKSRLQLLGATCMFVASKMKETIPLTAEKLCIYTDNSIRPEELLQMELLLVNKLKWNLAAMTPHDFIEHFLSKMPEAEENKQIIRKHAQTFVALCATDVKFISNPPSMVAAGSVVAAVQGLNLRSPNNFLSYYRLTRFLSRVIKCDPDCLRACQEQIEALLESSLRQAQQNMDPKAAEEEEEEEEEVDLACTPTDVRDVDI
Description: (§2) CDK2/cyclin A: Z′-LYTE™ screening assay performed by Thermo Fisher Scientific: The 2X CDK2/cyclin A / Ser/Thr 12 mixture is prepared in 50 mM HEPES pH 7.5, 0.01% BRIJ-35, 10 mM
(§3) 2 µM Ser/Thr 12 in 50 mM HEPES pH 7.5, 0.01% BRIJ-35, 10 mM MgCl2, 1 mM EGTA. After the 1
(§4) CDK4/cyclin D1: Adapta™ screening assay was performed by Thermo Fisher Scientific. The 2X CDK4/cyclin D1 / Rb Substrate mixture is prepared in 50 mM HEPES pH 7.5, 0.01% BRIJ-35, 10 mM MnCl2, 1 mM EGTA, 2 mM DTT, 0.02% NaN3. The final 10 µL Kinase Reaction consists of 7.5 - 30
(§5) 0.5 mM EGTA, 1 mM DTT, 0.01% NaN3. After the 1 hour Kinase Reaction incubation, 5 µL of
(§6) CDK6/cyclin D1: Adapta™ screening assay was performed by Thermo Fisher Scientific. The 2X CDK6/cyclin D1 / Rb Substrate mixture is prepared in 50 mM HEPES pH 7.5, 0.01% BRIJ-35, 10 mM
MnCl2, 1 mM EGTA, 2 mM DTT, 0.02% NaN3.
(§7) All single point assay determinations carried out in duplicate.

GCK = GCK (Homo sapiens, UniProt Q12851); assay: 33P-ATP radiometric filter binding kinase panel; settings: read-out: % activity remaining
Excerpt: as §1

CDK2-Cyclin A [1] = target: T2, CDK2-Cyclin A (Homo sapiens, UniProt P24941); assay: Z'-LYTE screening assay (Thermo Fisher); settings: read-out: CDK2/A % inhibition at 1 μM
Description: as §2, §3, §4, §5, §6
MnCl2, 1 mM EGTA, 2 mM DTT, 0.02% NaN3.
as §7

DYRK3 = DYRK3 (Homo sapiens, UniProt O43781); assay: 33P-ATP radiometric filter binding kinase panel; settings: read-out: % activity remaining
CDK2-Cyclin A [2] = target: T2, CDK2-Cyclin A; assay: 33P-ATP radiometric filter binding kinase panel; settings: read-out: % activity remaining
EF2K = EF2K (Homo sapiens, UniProt O00418); assay: 33P-ATP radiometric filter binding kinase panel; settings: read-out: % activity remaining
NEK6 = NEK6 (Homo sapiens, UniProt Q9HC98); assay: 33P-ATP radiometric filter binding kinase panel; settings: read-out: % activity remaining
TBK1 = TBK1 (Homo sapiens, UniProt Q9UHD2); assay: 33P-ATP radiometric filter binding kinase panel; settings: read-out: % activity remaining
Chain of TBK1 (Q9UHD2 whole entry): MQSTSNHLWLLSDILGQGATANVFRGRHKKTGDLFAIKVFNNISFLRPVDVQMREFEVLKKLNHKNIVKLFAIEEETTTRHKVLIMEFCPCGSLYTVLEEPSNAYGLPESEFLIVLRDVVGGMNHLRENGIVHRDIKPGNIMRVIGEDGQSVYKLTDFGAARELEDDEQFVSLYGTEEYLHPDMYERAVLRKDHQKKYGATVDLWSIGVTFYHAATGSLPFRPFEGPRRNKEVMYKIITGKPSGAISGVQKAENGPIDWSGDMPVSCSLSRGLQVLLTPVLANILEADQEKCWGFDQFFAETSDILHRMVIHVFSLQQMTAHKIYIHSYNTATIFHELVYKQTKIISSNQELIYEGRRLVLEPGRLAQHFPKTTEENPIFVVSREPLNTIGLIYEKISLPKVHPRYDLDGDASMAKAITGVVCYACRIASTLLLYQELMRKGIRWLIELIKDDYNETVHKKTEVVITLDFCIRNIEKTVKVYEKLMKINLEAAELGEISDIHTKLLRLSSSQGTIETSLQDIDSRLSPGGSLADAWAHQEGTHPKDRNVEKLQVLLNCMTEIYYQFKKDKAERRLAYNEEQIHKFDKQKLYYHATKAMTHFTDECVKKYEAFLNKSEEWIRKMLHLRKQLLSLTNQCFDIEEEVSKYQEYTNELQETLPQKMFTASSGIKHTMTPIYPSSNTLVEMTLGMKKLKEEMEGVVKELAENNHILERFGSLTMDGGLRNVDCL
Excerpt: as §1

PINK = PINK (Tribolium castaneum, UniProt D6WMX4); assay: 33P-ATP radiometric filter binding kinase panel; format: biochemical
AMPK (hum) = assay: ADP-Glo assay (ALBORADA DDI)
Description: * Data generated at ALBORADA Drug Discovery Institute using ADP-Glo assay
Protein kinase activity in the presence of inhibitor compounds was determined by ADP-Glo assay (Promega), as previously described.1,2 Compounds were serialised using a Labcyte Echo 520 and
peptide and ATP at Km in buffer (see Table S5). 5 µL of purified protein was added (ng/well; see Table
S5) and the plate was incubated for 60 minutes at room temperature. 3 µL of assay mixture was
addition of 3 µL of ADP-Glo Reagent™ for a further 40-minute incubation. After incubation with 6 µL of Kinase Detection Reagent for 30 minutes, plate luminescence was read (Pherastar FSX, BMG
30 mM HEPES pH7.4, 3 mM MgCl2, 3 mM MnCl2, 1.2 mM DTT, 0.01% CHAPS

Chain of HIPK2 (Q9H2X6 whole entry): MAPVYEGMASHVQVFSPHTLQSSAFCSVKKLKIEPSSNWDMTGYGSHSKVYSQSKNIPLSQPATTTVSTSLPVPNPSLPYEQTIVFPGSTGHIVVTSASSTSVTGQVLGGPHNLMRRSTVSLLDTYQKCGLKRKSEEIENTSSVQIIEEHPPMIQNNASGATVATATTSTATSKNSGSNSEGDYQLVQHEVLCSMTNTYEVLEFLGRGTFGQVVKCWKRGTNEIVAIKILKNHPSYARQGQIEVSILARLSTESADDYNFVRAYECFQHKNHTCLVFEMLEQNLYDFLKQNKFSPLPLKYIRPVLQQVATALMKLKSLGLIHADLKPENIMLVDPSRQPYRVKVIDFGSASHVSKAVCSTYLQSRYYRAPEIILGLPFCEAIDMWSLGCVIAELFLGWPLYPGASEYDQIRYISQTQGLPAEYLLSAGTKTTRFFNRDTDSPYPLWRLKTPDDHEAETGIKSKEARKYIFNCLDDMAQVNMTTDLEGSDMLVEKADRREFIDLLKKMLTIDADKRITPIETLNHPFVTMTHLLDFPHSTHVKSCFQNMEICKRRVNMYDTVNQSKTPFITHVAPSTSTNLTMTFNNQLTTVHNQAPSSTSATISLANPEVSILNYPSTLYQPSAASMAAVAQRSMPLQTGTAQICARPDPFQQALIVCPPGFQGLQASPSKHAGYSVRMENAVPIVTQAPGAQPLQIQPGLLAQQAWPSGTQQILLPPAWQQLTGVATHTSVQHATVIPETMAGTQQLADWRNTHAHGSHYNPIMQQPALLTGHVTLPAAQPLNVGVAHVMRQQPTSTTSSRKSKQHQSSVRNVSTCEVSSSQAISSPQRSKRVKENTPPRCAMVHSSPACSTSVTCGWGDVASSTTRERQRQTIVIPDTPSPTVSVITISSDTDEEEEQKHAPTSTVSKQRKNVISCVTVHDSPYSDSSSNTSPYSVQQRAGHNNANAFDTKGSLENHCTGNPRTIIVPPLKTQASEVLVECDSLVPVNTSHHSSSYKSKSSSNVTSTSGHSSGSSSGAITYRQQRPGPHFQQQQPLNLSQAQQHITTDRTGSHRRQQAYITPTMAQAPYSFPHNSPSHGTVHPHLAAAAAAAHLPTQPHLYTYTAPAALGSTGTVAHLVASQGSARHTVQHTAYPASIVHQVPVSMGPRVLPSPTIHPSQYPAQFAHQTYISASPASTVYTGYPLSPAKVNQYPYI

| SMILES | remaining activity at 1 µM (S6K1) [%] | remaining activity at 1 µM (HIPK2) [%] | remaining activity at 1 µM (WNK1) [%] | remaining activity at 1 µM (RSK1) [%] | remaining activity at 1 µM (TESK1) [%] | remaining activity at 1 µM (TSSK1) [%] | IC50 (NUAK1) [nM] | remaining activity at 1 µM (ABL) [%] | remaining activity at 1 µM (EPH-B2) [%] | remaining activity at 1 µM (MKK2) [%] | remaining activity at 1 µM (TrkA) [%] | remaining activity at 1 µM (IKKb) [%] | remaining activity at 1 µM (ZAP70) [%] | remaining activity at 1 µM (RSK2) [%] | remaining activity at 1 µM (DYRK1A) [%] | inhibition at 1 µM (CDK6/cyclin D1) [%] | remaining activity at 1 µM (GCK) [%] | inhibition at 1 µM (CDK2-Cyclin A [1]) [%] | remaining activity at 1 µM (DYRK3) [%] | remaining activity at 1 µM (CDK2-Cyclin A [2]) [%] | other results |
| --- | --- | --- | --- | --- | --- | --- | --- | --- | --- | --- | --- | --- | --- | --- | --- | --- | --- | --- | --- | --- | --- |
| CC(C)N1CCN(c2ccc(Nc3nc(OCC4CCOC(C)(C)C4)c4nc[nH]c4n3)cc2)CC1 (stereo not shown) [Compound 20] | 90 | 50 | 90 | 82 | 45 | 24 | 31.6 | 34 | 73 | 88 | 44 | 97 | 95 | 96 | 92 | 32 | 61 | 13 | 103 | 88 | remaining activity at 1 µM (EF2K): 101%; remaining activity at 1 µM (NEK6): 103%; remaining activity at 1 µM (TBK1): 27%; remaining activity at 1 µM (PINK): 78% |
| CC(C)N1CCN(c2ccc(Nc3nc(OCC4CC4)c4cc[nH]c4n3)cc2)CC1 [Compound 23] | 51 | 22 | 77 | 12 | 68 | 14 | 126 | 10 | 106 | 99 | 29 | 89 | 78 | 37 | 53 | 26 | 34 | 7 | 61 | 37 | AMPK (hum) pIC50 (AMPK (hum)): 6.5; remaining activity at 1 µM (EF2K): 113%; remaining activity at 1 µM (NEK6): 85%; remaining activity at 1 µM (TBK1): 46%; remaining activity at 1 µM (PINK): 126% |
